Publication PMC11714206, “Massively Parallel Screening of Toll/Interleukin‐1 Receptor (TIR)‐Derived Peptides Reveals Multiple Toll‐Like Receptors (TLRs)‐Targeting Immunomodulatory Peptides” (Advanced Science, 2024)
One block for each sequence: values may come before it.

Biological target: T1, MyD88^TIR (Homo sapiens, UniProt Q99836)
T1 construct: MyD88 (residues 148–296); 6xHis; made in house; host or cells: E. coli BL21 (DE3)
Test: T‐Surf phage library (P8 and P3) selection against MyD88^TIR, four rounds, NGS read counts
Type: binding
Conditions: for P8_MyD88 Rank (after) / P8_MyD88 Rank (before): P8 library; for Population: 4th round of selection against MyD88 TIR, share of NGS reads; for P3_MyD88 Rank (after) / P3_MyD88 Rank (before): P3 library
Outline: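 Read counts come from NGS of phage pools after the fourth selection round, barcoded by 20-cycle PCR and filtered for quality ≥30. Each round: phage incubated 1 h at RT on immobilised TIR protein (5 µg mL^−1, BSA-blocked), washed, HCl-eluted and amplified in E. coli TG1.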

[1] = selection against MyD88 TIR, rank by count after grouping
[2] = selection against MyD88 TIR, rank by count before grouping
[3] = P8_MyD88: rank by NGS read count after grouping
[4] = P8_MyD88: rank by NGS read count before grouping
[5] = P8_MyD88 pool: P8 T-Surf phage library
[6] = P8_MyD88: rank by count after grouping
[7] = P8_MyD88: rank by count before grouping
[8] = 4R selection against MyD88, rank after grouping
[9] = 4R selection against MyD88, rank before grouping
[10] = P3_MyD88 pool: P3 T-Surf phage library
[11] = P3_MyD88: rank by count after grouping
[12] = P3_MyD88: rank by count before grouping
[13] = selection against MyD88, rank after grouping
[14] = selection against MyD88, rank before grouping
[15] = selection against MyD88, rank by count after grouping
[16] = selection against MyD88, rank by count before grouping

T1 sequence (Q99836 148-296): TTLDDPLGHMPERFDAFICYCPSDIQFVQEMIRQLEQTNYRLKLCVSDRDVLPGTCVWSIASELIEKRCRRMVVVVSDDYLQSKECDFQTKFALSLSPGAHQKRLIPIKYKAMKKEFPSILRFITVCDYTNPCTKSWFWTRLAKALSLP

P8_MyD88 Rank (after) [1]: 215
P8_MyD88 Rank (before) [2]: 1788
Sequence: YASYDDNDYYWVTHVLLRFV

Rank (after) [3]: 997
Rank (before) [4]: 1799
Sequence: YASYDDNDYYWVTHVLLRH

Population [5]: 0.00732%
Sequence: YASYDDNDYYWVTHVLLRHM

Rank (after) [6]: 139
Rank (before) [7]: 255
Sequence: YASYDDNDYYWVTHVLLRPM

P8_MyD88 Rank (after) [8]: 638
P8_MyD88 Rank (before) [9]: 1808
Sequence: YASYDDNDYYWVTHVLLSR

Rank (after) [6]: 435
Rank (before) [7]: 1767
Sequence: YASYDDNDYYWVTPVLLRLV

Rank (after) [3]: 969
Rank (before) [4]: 1775
Sequence: YASYDDNYYYWVTHVLLRRL

Rank (after) [6]: 146
Rank (before) [7]: 162
Population [5]: 0.00886%
Sequence: YATSSWALNELVYLIM

Rank (after) [3]: 1007
Rank (before) [4]: 1925
Sequence: YELAFSHCCLFEGHST

Rank (after) [3]: 929
Rank (before) [4]: 1947
Sequence: YELDFSHFCCLMARR

Rank (after) [6]: 463
Rank (before) [7]: 1949
Sequence: YELDFSHFSLFEGQAT

P8_MyD88 Rank (after) [1]: 265
P8_MyD88 Rank (before) [2]: 537
Sequence: YELDFSHFWLFDAGGDA

P8_MyD88 Rank (after) [1]: 239
P8_MyD88 Rank (before) [2]: 1938
Sequence: YELDFSHFWLFDGHATGEA

P8_MyD88 Rank (after) [1]: 284
P8_MyD88 Rank (before) [2]: 664
Sequence: YELDFSHFWLFDGQAGGEA

P8_MyD88 Rank (after) [8]: 636
P8_MyD88 Rank (before) [9]: 1944
Sequence: YELDFSHFWLFEARGDA

P8_MyD88 Rank (after) [1]: 245
P8_MyD88 Rank (before) [2]: 538
Sequence: YELDFSHFWLFEGPAG

Rank (after) [3]: 1008
Rank (before) [4]: 1929
Sequence: YELDFSHFWLFVGQAP

Population [10]: 0.0032%
Sequence: YELVHVWSSKANSLVG

Rank (after) [6]: 118
Rank (before) [7]: 125
Population [5]: 0.0162%
Sequence: YFRNESEFIQEIVQWV

Population [10]: 0.00262%
Sequence: YGHESEIIKEIVDTIV

Rank (after) [11]: 189
Rank (before) [12]: 1615
Sequence: YHPLDLPRGKAIKPEILG

P8_MyD88 Rank (after) [13]: 564
P8_MyD88 Rank (before) [14]: 2108
Sequence: YIIWFEDIQLIHLLCD

Rank (after) [6]: 385
Rank (before) [7]: 988
Sequence: YILYEDQTIKFVFRDFIQEL

P8_MyD88 Rank (after) [15]: 688
P8_MyD88 Rank (before) [16]: 2121
Sequence: YITRFDDIQQIELFWD

Rank (after) [3]: 978
Rank (before) [4]: 2116
Sequence: YITWFDDIQQIQVFWV

Rank (after) [3]: 924
Rank (before) [4]: 2117
Sequence: YITWFEDFQQILLFWI

P8_MyD88 Rank (after) [15]: 742
P8_MyD88 Rank (before) [16]: 2138
Sequence: YKLALHFRDWLLGAYI

Rank (after) [3]: 901
Rank (before) [4]: 2137
Sequence: YKLALHFRDWLVGVH

Rank (after) [3]: 883
Rank (before) [4]: 2135
Sequence: YKLALHFRVWRVGVSI

Rank (after) [6]: 477
Rank (before) [7]: 1960
Sequence: YLEWPLDENQQLIFWF

P3_MyD88 Rank (after) [8]: 620
P3_MyD88 Rank (before) [9]: 1566
Sequence: YLKCGYPCFCDRLRFA

P3_MyD88 Rank (after) [1]: 268
P3_MyD88 Rank (before) [2]: 864
Sequence: YLKVESWRQALEKAGKL

P3_MyD88 Rank (after) [1]: 238
P3_MyD88 Rank (before) [2]: 862
Sequence: YLKWAIRGFGIVCVL

P3_MyD88 Rank (after) [13]: 568
P3_MyD88 Rank (before) [14]: 1571
Sequence: YLKWGSPWFWDRLRFGPIGQ

P3_MyD88 Rank (after) [1]: 216
P3_MyD88 Rank (before) [2]: 1602
Sequence: YLKWGYPRFWDRLRCA

P3_MyD88 Rank (after) [15]: 729
P3_MyD88 Rank (before) [16]: 1603
Sequence: YLKWGYPRFWDRLRFV

P3_MyD88 Rank (after) [1]: 282
P3_MyD88 Rank (before) [2]: 1431
Sequence: YLKWGYPRFWDRQRFP

Rank (after) [11]: 166
Rank (before) [12]: 855
Sequence: YLKWGYPWFGIVCVL

Rank (after) [11]: 142
Rank (before) [12]: 572
Sequence: YLKWGYPWFWDRLP

P8_MyD88 Rank (after) [13]: 571
P8_MyD88 Rank (before) [14]: 2084
Sequence: YLKWGYPWFWDRLRFA

Rank (after) [11]: 97
Rank (before) [12]: 342
Sequence: YLKWGYPWFWDRLRYAM

Rank (after) [11]: 110
Rank (before) [12]: 575
Sequence: YLKWGYPWFWSKLRYAM

P3_MyD88 Rank (after) [13]: 543
P3_MyD88 Rank (before) [14]: 1576
Sequence: YLKWGYRWYWDRLRFA

P3_MyD88 Rank (after) [15]: 714
P3_MyD88 Rank (before) [16]: 1574
Sequence: YLKWGYVVLGSSAFC

P8_MyD88 Rank (after) [15]: 738
P8_MyD88 Rank (before) [16]: 1964
Sequence: YLLAGDFWIFFTLLTA

P8_MyD88 Rank (after) [1]: 276
P8_MyD88 Rank (before) [2]: 1965
Sequence: YLLLGVFQTIFARRTA

P8_MyD88 Rank (after) [13]: 546
P8_MyD88 Rank (before) [14]: 2018
Sequence: YLLLNVFQIIFARGPE

Rank (after) [3]: 898
Rank (before) [4]: 1967
Sequence: YLLLRVLQTIFLRRTD

P8_MyD88 Rank (after) [8]: 637
P8_MyD88 Rank (before) [9]: 2016
Sequence: YLLLSEFHSELALRPL

Rank (after) [3]: 963
Rank (before) [4]: 1999
Sequence: YLLLSVFQTICALRTE

Population [5]: 0.00771%
Sequence: YLLLSVFQTIFARRTD

Rank (after) [3]: 925
Rank (before) [4]: 2010
Sequence: YLLLSVLHTRSARGYV

Rank (after) [3]: 1013
Rank (before) [4]: 2020
Sequence: YLLRSLFQTLFPRRTE

P8_MyD88 Rank (after) [1]: 257
P8_MyD88 Rank (before) [2]: 447
Sequence: YLMWPQEEEEIPLFWH

Rank (after) [6]: 478
Rank (before) [7]: 2080
Sequence: YLQDLDWFYERLVSLF

P3_MyD88 Rank (after) [1]: 251
P3_MyD88 Rank (before) [2]: 1559
Sequence: YLQWGYPCFWDRLRFA

P3_MyD88 Rank (after) [1]: 259
P3_MyD88 Rank (before) [2]: 1558
Sequence: YLQWGYSWFWDRLRFA

P8_MyD88 Rank (after) [8]: 646
P8_MyD88 Rank (before) [9]: 2040
Sequence: YLRADDIWVWEKLLYA

P8_MyD88 Rank (after) [8]: 643
P8_MyD88 Rank (before) [9]: 2038
Sequence: YLRADDLVLGKTAVC

Rank (after) [3]: 983
Rank (before) [4]: 2070
Sequence: YLRADDNDYYWVTHVLLRHL

P8_MyD88 Rank (after) [15]: 694
P8_MyD88 Rank (before) [16]: 2043
Sequence: YLRADDSCSWEKLRYA

P8_MyD88 Rank (after) [13]: 574
P8_MyD88 Rank (before) [14]: 2062
Sequence: YLRADDSWFEEKLLFA

P8_MyD88 Rank (after) [13]: 553
P8_MyD88 Rank (before) [14]: 2056
Sequence: YLRADDSWFWEKLLQIA

P8_MyD88 Rank (after) [8]: 609
P8_MyD88 Rank (before) [9]: 2071
Sequence: YLRADEFWTLEKLLTA

Rank (after) [3]: 870
Rank (before) [4]: 2072
Sequence: YLRADELLKILYANETM

P8_MyD88 Rank (after) [13]: 491
P8_MyD88 Rank (before) [14]: 2075
Sequence: YLRLEVIWFWENRRYA

Rank (after) [3]: 899
Rank (before) [4]: 2077
Sequence: YLRRSVFQTMLARRTE

P3_MyD88 Rank (after) [13]: 539
P3_MyD88 Rank (before) [14]: 1562
Sequence: YLRWGYPWFGDRLRFA

P3_MyD88 Rank (after) [8]: 634
P3_MyD88 Rank (before) [9]: 1728
Sequence: YNFISHLYDALRLNKIAPF

P3_MyD88 Rank (after) [1]: 271
P3_MyD88 Rank (before) [2]: 896
Sequence: YNFISHLYDALRLNKIETF

P3_MyD88 Rank (after) [15]: 710
P3_MyD88 Rank (before) [16]: 1743
Sequence: YNFISQLYDALQRNRI

P8_MyD88 Rank (after) [15]: 715
P8_MyD88 Rank (before) [16]: 2132
Sequence: YNLAHYLYVSMRASGI

P8_MyD88 Rank (after) [8]: 664
P8_MyD88 Rank (before) [9]: 2134
Sequence: YNLAQYLHVSLMARGI

P3_MyD88 Rank (after) [13]: 549
P3_MyD88 Rank (before) [14]: 1746
Sequence: YNLISHLYDAMHRNRI

P8_MyD88 Rank (after) [15]: 719
P8_MyD88 Rank (before) [16]: 2097
Sequence: YPQDLDWFYERLVSQF

Rank (after) [3]: 945
Rank (before) [4]: 2099
Sequence: YPQDLEWLYERLVSPV

Rank (after) [3]: 892
Rank (before) [4]: 2104
Sequence: YPQDLQWLYERLGSLI

P8_MyD88 Rank (after) [15]: 762
P8_MyD88 Rank (before) [16]: 2102
Sequence: YPQELDWCYERLVSLL

P8_MyD88 Rank (after) [15]: 699
P8_MyD88 Rank (before) [16]: 2101
Sequence: YPQELVLFYELLGSLV

P8_MyD88 Rank (after) [13]: 518
P8_MyD88 Rank (before) [14]: 2106
Sequence: YQLVFVHFWMFDGRTA

P3_MyD88 Rank (after) [13]: 569
P3_MyD88 Rank (before) [14]: 1617
Sequence: YQWRNALSAAANLCGW
